Results published in patent US20260042764A1, “COMPOSITIONS AND METHODS FOR INHIBITION OF KRAS” (TheRas, Inc., priority 2022, published 2026).

What was measured:
SW620 cells (KRAS G12V) = test: Cell-based pERK HTRF assay in SW620 cell (Biological Example 4)
Summary of the method: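 Read-out: HTRF pERK signal (excitation 320 nm, emission 615 nm) from lysates of SW620 cells after 4 h compound exposure. Dose range was 9 points, half-log steps from 1 μM, in 0.25% DMSO; antibody incubation ran 4–24 h at room temperature.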

GP2d cells (KRAS G12D) = test: Cell-based pERK HTRF assay in GP2d cell (Biological Example 2); conditions: GP2d (KRAS G12D) cells
Summary of the method: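 GP2d (KRAS G12D) cells were plated in DMEM/10% FBS and treated the next day for 60 min with compounds. Dosing used 9-point half-log series starting at 1 μM or 100 nM in 0.25% DMSO. Lysates were read by HTRF pERK (d2/Eu cryptate antibodies) after 4–24 h at room temperature, with excitation at 320 nm and emission at 615 nm.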

[1] = target: T1, Avi-KRAS WT (2-169) GTP/RAF1 RBD-3xFLAG (51-131) (Homo sapiens, UniProt P01116); test: Raf1-KRAS WT-GTP disruption HTRF assay (Biological Example 3); format: binding; conditions: KRAS WT, GTP-loaded
T1 construct: Avi-KRAS WT (2-169)
Summary of the method: (§1)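 Each KRAS-GTP/RAF1 RBD complex at 50 nM, with 75 nM 3xFLAG-RAF1 RBD (51-131)-Avi, in 50 mM Tris pH 7.5, 100 mM NaCl, 5 mM MgCl2, 0.1% BSA, 0.01% Tween 20, 10% DMSO. Compounds titrated from 30 μM, 10-point 3x series; 1 h at room temperature with shaking. HTRF read, activity as percent of DMSO.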

[2] = target: T2, Avi-KRAS G12D (2-169) GTP/RAF1 RBD-3xFLAG (51-131) (Homo sapiens, UniProt P01116, G12D); test: Raf1-KRAS G12D-GTP disruption HTRF assay (Biological Example 3); format: binding; conditions: KRAS G12D, GTP-loaded
T2 construct: Avi-KRAS G12D (2-169)
Summary of the method: as §1

[3] = target: T3, Avi-KRAS G12V (2-169) GTP/RAF1 RBD-3xFLAG (51-131) (Homo sapiens, UniProt P01116, G12V); test: Raf1-KRAS G12V-GTP disruption HTRF assay (Biological Example 3); format: binding; conditions: KRAS G12V, GTP-loaded
T3 construct: Avi-KRAS G12V (2-169)
Summary of the method: as §1

[4] = target: T4, Avi-KRAS G12C (2-169) GTP/RAF1 RBD-3xFLAG (51-131) (Homo sapiens, UniProt P01116, G12C); test: Raf1-KRAS G12C-GTP disruption HTRF assay (Biological Example 3); format: binding; conditions: KRAS G12C, GTP-loaded
T4 construct: Avi-KRAS G12C (2-169)
Summary of the method: as §1

[5] = Homo sapiens, SW-620, SW620 (KRAS G12V) cells

T4 sequence (P01116 2-169 isoform P01116-2 G12C): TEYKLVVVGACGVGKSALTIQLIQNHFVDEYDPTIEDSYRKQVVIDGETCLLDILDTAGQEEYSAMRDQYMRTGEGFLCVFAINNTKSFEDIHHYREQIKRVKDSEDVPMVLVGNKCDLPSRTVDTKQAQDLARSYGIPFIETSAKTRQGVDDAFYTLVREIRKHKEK
T2 sequence (P01116 2-169 isoform P01116-2 G12D): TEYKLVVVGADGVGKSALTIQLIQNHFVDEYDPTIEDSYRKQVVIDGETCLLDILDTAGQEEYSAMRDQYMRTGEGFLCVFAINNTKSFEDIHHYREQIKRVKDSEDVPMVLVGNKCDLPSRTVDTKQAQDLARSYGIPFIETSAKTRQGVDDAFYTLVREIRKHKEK
T3 sequence (P01116 2-169 isoform P01116-2 G12V): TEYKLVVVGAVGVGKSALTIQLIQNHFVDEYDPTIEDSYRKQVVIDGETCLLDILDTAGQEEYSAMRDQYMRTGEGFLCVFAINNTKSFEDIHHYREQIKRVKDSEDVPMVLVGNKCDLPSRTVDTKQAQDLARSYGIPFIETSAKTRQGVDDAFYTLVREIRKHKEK
T1 sequence (P01116 2-169 isoform P01116-2): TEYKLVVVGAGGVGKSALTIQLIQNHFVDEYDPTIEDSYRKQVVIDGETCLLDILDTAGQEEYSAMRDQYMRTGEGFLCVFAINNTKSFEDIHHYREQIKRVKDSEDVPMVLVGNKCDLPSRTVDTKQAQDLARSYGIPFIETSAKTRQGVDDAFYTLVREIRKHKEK

SMILES | IC50 (SW620 cells (KRAS G12V); [5]) [nM] | IC50 (GP2d cells (KRAS G12D); GP2d) [nM] | IC50 [1] [nM] | IC50 [2] [nM] | IC50 [3] [nM] | IC50 [4] [nM] | IC50 (SW620 cells (KRAS G12V); SW620 (KRAS G12V) cells) [nM] | IC50 (GP2d cells (KRAS G12D)) [nM]
CN(Cc1cccnn1)c1nc(OC[C@@]23CCCN2C[C@H](F)C3)nc2c(F)c(-c3ccc(F)c4sc(N)c(C#N)c34)c(C(F)(F)F)cc12 (atropisomer, axis not shown) [Compound 876] | < 100 | < 100 | 1000 to 10000 | 100 to 1000 | 100 to 1000 | 100 to 1000 |  | 
COC(=O)N1CC[C@H](N(CCF)c2nc(OC[C@@]34CCCN3C[C@H](F)C4)nc3c(F)c(-c4ccc(F)c5sc(N)c(C#N)c45)c(C(F)(F)F)cc23)C1 (atropisomer, axis not shown) [Compound 829] | < 100 | < 100 | 1000 to 10000 | 100 to 1000 | 100 to 1000 | 100 to 1000 |  | 
CCN(c1nc(OC[C@@]23CCCN2C[C@H](F)C3)nc2c(F)c(-c3ccc(F)c4sc(N)c(C#N)c34)c(C(F)(F)F)cc12)[C@H]1C[C@H]2[C@@H](C)OC(=O)N2C1 (atropisomer, axis not shown) [Compound 823] | < 100 | < 100 | 100 to 1000 | 100 to 1000 | 100 to 1000 | 100 to 1000 |  | 
CCN(c1nc(OC[C@@]23CCCN2C[C@H](F)C3)nc2c(F)c(-c3ccc(F)c4sc(N)c(C#N)c34)c(C(F)(F)F)cc12)[C@@H]1CCCN(C)C1=O (atropisomer, axis not shown) [Compound 968] | < 100 | < 100 | 100 to 1000 | 100 to 1000 | 1000 to 10000 | 1000 to 10000 |  | 
CCN(c1nc(OC[C@@]23CCCN2C[C@H](F)C3)nc2c(F)c(-c3ccc(F)c4sc(N)c(C#N)c34)c(C(F)(F)F)cc12)[C@H]1CCCN(C)C1=O (atropisomer, axis not shown) [Compound 967] | < 100 | < 100 | 1000 to 10000 | 100 to 1000 | 1000 to 10000 | 1000 to 10000 |  | 
CCN(c1nc(OC[C@@]23CCCN2C[C@H](F)C3)nc2c(F)c(-c3ccc(F)c4sc(N)c(C#N)c34)c(C(F)(F)F)cc12)[C@H]1CCN(C(=O)OC2CC(OC)C2)[C@@H]1C (stereo partly drawn) [Compound 897] | < 100 | < 100 | 100 to 1000 | 100 to 1000 | 100 to 1000 | 100 to 1000 |  | 
CCN(c1nc(OC[C@@]23CCCN2C[C@H](F)C3)nc2c(F)c(-c3ccc(F)c4sc(N)c(C#N)c34)c(C(F)(F)F)cc12)[C@H]1CCN(C(C)=O)[C@@H]1COC (atropisomer, axis not shown) [Compound 924] | < 100 | < 100 | 100 to 1000 | 100 to 1000 | 100 to 1000 | 100 to 1000 |  | 
CN(c1nc(OCC23CCCN2CC(F)C3)nc2c(F)c(-c3ccc(F)c4sc(N)c(C#N)c34)c(C(F)(F)F)cc12)C1CCc2ccncc21 (stereo not drawn) [Compound 961] |  |  | > 10000 | 1000 to 10000 | 1000 to 10000 | > 10000 | < 100 | < 100
CCN(c1nc(OC[C@@]23CCCN2C[C@H](F)C3)nc2c(F)c(-c3ccc(F)c4sc(N)c(C#N)c34)c(C(F)(F)F)cc12)[C@@H]1CO[C@H]2OCC[C@H]21 (atropisomer, axis not shown) [Compound 966] | < 100 | < 100 | 100 to 1000 | 100 to 1000 | 100 to 1000 | 100 to 1000 |  | 
CN(Cc1cncnc1)c1nc(OC[C@@]23CCCN2C[C@H](F)C3)nc2c(F)c(-c3ccc(F)c4sc(N)c(C#N)c34)c(C(F)(F)F)cc12 (atropisomer, axis not shown) [Compound 898] | < 100 | < 100 | 1000 to 10000 | 100 to 1000 | 100 to 1000 | 1000 to 10000 |  | 
CCN(c1nc(OC[C@@]23CCCN2C[C@H](F)C3)nc2c(F)c(-c3ccc(F)c4sc(N)c(C#N)c34)c(C(F)(F)F)cc12)[C@H]1C[C@H]2CN(C(C)(C)C)C(=O)N2C1 (atropisomer, axis not shown) [Compound 936] | < 100 | < 100 | 1000 to 10000 | 100 to 1000 | 1000 to 10000 | 1000 to 10000 |  | 
CCN(c1nc(OC[C@@]23CCCN2C[C@H](F)C3)nc2c(F)c(-c3ccc(F)c4sc(N)c(C#N)c34)c(C(F)(F)F)cc12)[C@H]1C[C@H]2C[C@@H](C)C(=O)N2C1 (atropisomer, axis not shown) [Compound 866] | < 100 | < 100 | ≤ 100 | ≤ 100 | ≤ 100 | ≤ 100 |  | 
CCN(c1nc(OCC23CCCN2CC(F)C3)nc2c(F)c(-c3ccc(F)c4sc(N)c(C#N)c34)c(C(F)(F)F)cc12)C1CCN(C(=O)c2cnc(C#N)s2)C1 (stereo not drawn) [Compound 960] |  |  | 1000 to 10000 | 100 to 1000 | 100 to 1000 | 100 to 1000 | < 100 | < 100
CCN(c1nc(OC[C@@]23CCCN2C[C@H](F)C3)nc2c(F)c(-c3ccc(F)c4sc(N)c(C#N)c34)c(C(F)(F)F)cc12)C1CCN(C(=O)C2CC2)C1 (stereo partly drawn) [Compound 903] | < 100 | < 100 | 100 to 1000 | ≤ 100 | ≤ 100 | ≤ 100 |  | 
CCN(c1nc(OC[C@@]23CCCN2C[C@H](F)C3)nc2c(F)c(-c3ccc(F)c4sc(N)c(C#N)c34)c(C(F)(F)F)cc12)[C@H]1C[C@H]2CCCC(=O)N2C1 (atropisomer, axis not shown; (aR)) [Compound 662, 2-amino-4-((S)-4-(ethyl((2S,8aR)-5-oxooctahydroindolizin-2-yl)amino)-8-fluoro-2-(((2R,7aS)-2-fluorotetrahydro-1H-pyrrolizin-7a(5H)-yl)methoxy)-6-(trifluoromethyl)quinazolin-7-yl)-7-fluorobenzo[b]thiophene-3-carbonitrile] | < 100 | < 100 | 100 to 1000 | ≤ 100 | ≤ 100 | ≤ 100 |  | 
CCN(c1nc(OC[C@@]23CCCN2C[C@H](F)C3)nc2c(F)c(-c3ccc(F)c4sc(N)c(C#N)c34)c(C(F)(F)F)cc12)[C@H]1CC[C@@](C)(C(=O)N(C)C)C1 (atropisomer, axis not shown) [Compound 873] | < 100 | < 100 | 100 to 1000 | 1000 to 10000 | 1000 to 10000 | 1000 to 10000 |  | 
CCN(c1nc(OCC23CCCN2CC(F)C3)nc2c(F)c(-c3ccc(F)c4sc(N)c(C#N)c34)c(C(F)(F)F)cc12)C1CCN(C(=O)c2ccc(Cl)s2)C1 (stereo not drawn) [Compound 929] |  |  | 100 to 1000 | 100 to 1000 | 100 to 1000 | 100 to 1000 | < 100 | < 100
CCN(c1nc(OC[C@@]23CCCN2C[C@H](F)C3)nc2c(F)c(-c3ccc(F)c4sc(N)c(C#N)c34)c(C(F)(F)F)cc12)[C@H]1CC[C@](C)(C(=O)N(C)C)C1 (atropisomer, axis not shown) [Compound 894] | < 100 | < 100 | 1000 to 10000 | 1000 to 10000 | 1000 to 10000 | 1000 to 10000 |  | 
